{"source": "paper PMC5042776", "about": "(Molecular Medicine Reports, 2016)", "key": {"[1]": {"system": "influenza A/PR/8/34 virus (H1N1 subtype)", "assay": "microbe, parasite or virus in culture", "format": "cell-based", "conditions": "for SI (H1N1): CC50/IC50; for IC50: Influenza A virus, H1N1|PR/8, MDCK, 72 h, read-out: IC50 (H1N1)"}, "[2]": {"system": "A/shenzhen/203/2001 (H3N2 subtype)", "assay": "microbe, parasite or virus in culture", "format": "cell-based, influenza A virus", "conditions": "for SI (H3N2): CC50/IC50; for IC50: Influenza A virus, H3N2, MDCK, 72 h, read-out: IC50 (H3N2)"}, "Cytotoxicity assay": {"assay": "Cytotoxicity assay", "format": "cell-based, canine", "conditions": "dog, MDCK cells"}, "influenza A virus (IAV) [3]": {"system": "influenza A virus (IAV)", "assay": "IAV-induced acute lung injury in mice", "format": "in vivo, ICR mice"}, "influenza A virus (IAV) [4]": {"system": "influenza A virus (IAV)", "format": "in vivo, ICR mice"}, "[5]": {"system": "serum IFN-β, IL-6, TNF-α, IL-1β", "format": "in vivo, ICR mice", "conditions": "after 5 days of treatment"}, "[6]": {"system": "Toll-like receptor 7 (TLR7) signaling pathway", "format": "in vivo, ICR mice"}, "[7]": {"conditions": "50 mg/kg intragastric once daily 5 days"}, "[8]": {"conditions": "10 mg/kg intragastric once daily 5 days"}, "[9]": {"conditions": "20 mg/kg intragastric once daily 5 days"}, "[10]": {"conditions": "40 mg/kg intragastric once daily 5 days"}}, "note": "Like-named read-outs stand apart in the source and are kept apart here. Marks after values point to notes of the source that are not given here."}
{"compound": "NC(=O)c1ncn([C@@H]2O[C@H](CO)[C@@H](O)[C@H]2O)n1", "note": "[Ribavirin, reference compound]", "values": [{"measurement": "SI (H1N1)", "setting": "[1]", "result": 8.2}, {"measurement": "IC50", "setting": "[1]", "result": 14.2, "unit": "µg/mL"}, {"measurement": "SI (H3N2)", "setting": "[2]", "result": 10.9}, {"measurement": "IC50", "setting": "[2]", "result": 10.7, "unit": "µg/mL"}, {"measurement": "CC50 at 3 days", "setting": "Cytotoxicity assay", "result": 116, "unit": "µg/mL"}, {"measurement": "Inhibitory rate (lung index)", "setting": "influenza A virus (IAV) [3]; [7]", "result": 61.7, "unit": "%"}, {"measurement": "Lung index", "setting": "influenza A virus (IAV) [3]; [7]", "result": "12.68±3.30 ^b mg/g"}, {"measurement": "Viral load (lung)", "setting": "influenza A virus (IAV) [3]; [7]", "result": "1.38±0.56 ^b ×10^6 copies"}, {"measurement": "Life prolong rate", "setting": "influenza A virus (IAV) [4]; [7]", "result": 40.5, "unit": "%"}, {"measurement": "MDD ± SD (mean day to death)", "setting": "influenza A virus (IAV) [4]; [7]", "result": "11.1±3.1 ^a day"}, {"measurement": "Survival rate", "setting": "influenza A virus (IAV) [4]; [7]", "result": 50.0, "unit": "%"}, {"measurement": "Survived/total", "setting": "influenza A virus (IAV) [4]; [7]", "result": "10/20"}, {"measurement": "IFN-β (serum)", "setting": "[5]; 50 mg/kg", "result": "23.3 ± 2.79", "unit": "pg/mL"}, {"measurement": "IL-1β (serum)", "setting": "[5]; 50 mg/kg", "result": "21.6 ± 3.36", "unit": "pg/mL"}, {"measurement": "IL-6 (serum)", "setting": "[5]; 50 mg/kg", "result": "18.5±5.99 ^b pg/ml"}, {"measurement": "TNF-α (serum)", "setting": "[5]; 50 mg/kg", "result": "13.4±1.54 ^b pg/ml"}]}
{"compound": "C=C1CCC[C@]2(C)C[C@]3(O)OC(=O)C(C)=C3C[C@@H]12", "note": "[Atractylenolide III, atractylenolide III]", "values": [{"measurement": "SI (H1N1)", "setting": "[1]", "result": 7.8}, {"measurement": "IC50", "setting": "[1]", "result": 24.4, "unit": "µg/mL"}, {"measurement": "SI (H3N2)", "setting": "[2]", "result": 6.7}, {"measurement": "IC50", "setting": "[2]", "result": 28.6, "unit": "µg/mL"}, {"measurement": "CC50 at 3 days", "setting": "Cytotoxicity assay", "result": 191, "unit": "µg/mL"}]}
{"compound": "C=C1CCC[C@]2(C)Cc3occ(C)c3C[C@@H]12", "note": "[Atractylon, atractylon]", "values": [{"measurement": "SI (H1N1)", "setting": "[1]", "result": 29.4}, {"measurement": "SI values relative to those of ribavirin", "setting": "[1]; H1N1 and H3N2", "result": "approximately 3 fold"}, {"measurement": "IC50", "setting": "[1]", "result": 8.9, "unit": "µg/mL"}, {"measurement": "SI (H3N2)", "setting": "[2]", "result": 27.8}, {"measurement": "IC50", "setting": "[2]", "result": 9.4, "unit": "µg/mL"}, {"measurement": "CC50 at 3 days", "setting": "Cytotoxicity assay", "result": 261, "unit": "µg/mL"}, {"measurement": "Inhibitory rate (lung index)", "setting": "influenza A virus (IAV) [3]; [8]", "result": 27.5, "unit": "%"}, {"measurement": "Lung index", "setting": "influenza A virus (IAV) [3]; [8]", "result": "17.43±4.16 ^a mg/g"}, {"measurement": "Viral load (lung)", "setting": "influenza A virus (IAV) [3]; [8]", "result": "4.79±0.84 ^b ×10^6 copies"}, {"measurement": "Inhibitory rate (lung index)", "setting": "influenza A virus (IAV) [3]; [9]", "result": 58.8, "unit": "%"}, {"measurement": "Lung index", "setting": "influenza A virus (IAV) [3]; [9]", "result": "13.08±4.54 ^b mg/g"}, {"measurement": "Viral load (lung)", "setting": "influenza A virus (IAV) [3]; [9]", "result": "2.56±0.72 ^b ×10^6 copies"}, {"measurement": "Inhibitory rate (lung index)", "setting": "influenza A virus (IAV) [3]; [10]", "result": 74.5, "unit": "%"}, {"measurement": "Lung index", "setting": "influenza A virus (IAV) [3]; [10]", "result": "10.90±3.76 ^b mg/g"}, {"measurement": "Viral load (lung)", "setting": "influenza A virus (IAV) [3]; [10]", "result": "0.36±0.15 ^b ×10^6 copies"}, {"measurement": "histological damage of lung", "setting": "influenza A virus (IAV) [3]; 10–40 mg/kg, H&E staining", "result": "improved"}, {"measurement": "Life prolong rate", "setting": "influenza A virus (IAV) [4]; [8]", "result": 17.7, "unit": "%"}, {"measurement": "MDD ± SD (mean day to death)", "setting": "influenza A virus (IAV) [4]; [8]", "result": "9.3±3.6 ^a day"}, {"measurement": "Survival rate", "setting": "influenza A virus (IAV) [4]; [8]", "result": 30.0, "unit": "%"}, {"measurement": "Survived/total", "setting": "influenza A virus (IAV) [4]; [8]", "result": "6/20"}, {"measurement": "Life prolong rate", "setting": "influenza A virus (IAV) [4]; [9]", "result": 41.8, "unit": "%"}, {"measurement": "MDD ± SD (mean day to death)", "setting": "influenza A virus (IAV) [4]; [9]", "result": "11.2±3.3 ^a day"}, {"measurement": "Survival rate", "setting": "influenza A virus (IAV) [4]; [9]", "result": 55.0, "unit": "%"}, {"measurement": "Survived/total", "setting": "influenza A virus (IAV) [4]; [9]", "result": "11/20"}, {"measurement": "Life prolong rate", "setting": "influenza A virus (IAV) [4]; [10]", "result": 57.0, "unit": "%"}, {"measurement": "MDD ± SD (mean day to death)", "setting": "influenza A virus (IAV) [4]; [10]", "result": "12.4±2.6 ^a day"}, {"measurement": "Survival rate", "setting": "influenza A virus (IAV) [4]; [10]", "result": 70.0, "unit": "%"}, {"measurement": "Survived/total", "setting": "influenza A virus (IAV) [4]; [10]", "result": "14/20"}, {"measurement": "IFN-β (serum)", "setting": "[5]; 10 mg/kg", "result": "25.8 ± 2.87", "unit": "pg/mL"}, {"measurement": "IL-1β (serum)", "setting": "[5]; 10 mg/kg", "result": "17.2±1.35 ^b pg/ml"}, {"measurement": "IL-6 (serum)", "setting": "[5]; 10 mg/kg", "result": "19.5±2.76 ^b pg/ml"}, {"measurement": "TNF-α (serum)", "setting": "[5]; 10 mg/kg", "result": "16.2±2.27 ^a pg/ml"}, {"measurement": "IFN-β (serum)", "setting": "[5]; 20 mg/kg", "result": "29.4±3.27 ^a pg/ml"}, {"measurement": "IL-1β (serum)", "setting": "[5]; 20 mg/kg", "result": "16.5±1.17 ^b pg/ml"}, {"measurement": "IL-6 (serum)", "setting": "[5]; 20 mg/kg", "result": "17.4±1.11 ^b pg/ml"}, {"measurement": "TNF-α (serum)", "setting": "[5]; 20 mg/kg", "result": "11.8±1.94 ^b pg/ml"}, {"measurement": "IFN-β (serum)", "setting": "[5]; 40 mg/kg", "result": "30.8±3.31 ^b pg/ml"}, {"measurement": "IL-1β (serum)", "setting": "[5]; 40 mg/kg", "result": "13.4±0.74 ^b pg/ml"}, {"measurement": "IL-6 (serum)", "setting": "[5]; 40 mg/kg", "result": "12.8±1.16 ^b pg/ml"}, {"measurement": "TNF-α (serum)", "setting": "[5]; 40 mg/kg", "result": "9.20±0.77 ^b pg/ml"}, {"measurement": "mRNA expressions of TLR7, MyD88, TRAF6 and IFN-β in lung tissue", "setting": "[6]; compared with model control group, P<0.01", "result": "obviously upregulated"}, {"measurement": "NF-κB p65 protein expression in lung tissue", "setting": "[6]; mouse, in vivo", "result": "downregulated"}]}
